Reference: US20100324290A1, “CRYSTALLINE FORM I OF LAMIVUDINE AND ITS PREPARATION” (RANBAXY LABORATORIES LIMITED, priority 2007, published 2010)
Where two headings read alike, the source gives them in different places.

Tests used:
[1] = Stability of crystalline Form I to milling (solid form after milling, XRPD); assay type: physicochemical
Text: In one aspect, a stable crystalline Form I of lamivudine is provided. […] The term milling refers to an act or process of grinding, crushing, pulverizing, powdering, atomizing, pestling, levigating, sifting, sieving, size reducing, or passing through a milling device. […] XRPD of the samples were obtained by using Panalytical X′Pert Pro X-Ray Powder Diffractometer in the range 3-40 degree 2 theta and under tube voltage and current of 45 Kv and 40 mA respectively. Copper radiation of wavelength 1.54 angstrom and Xceletor detector was used. Form II of lamivudine: Not detectable (Limit of detection: 0.5% by XRPD) The stable crystalline Form I of lamivudine obtained from Example 2 was subjected to the following conditions: […]

[2] = Storage stability of crystalline Form I (solid form after storage, XRPD); assay type: physicochemical
Text: XRPD of the samples were obtained by using Panalytical X′Pert Pro X-Ray Powder Diffractometer in the range 3-40 degree 2 theta and under tube voltage and current of 45 Kv and 40 mA respectively. Copper radiation of wavelength 1.54 angstrom and Xceletor detector was used. Form II of lamivudine: Not detectable (Limit of detection: 0.5% by XRPD) The stable crystalline Form I of lamivudine obtained from Example 2 was subjected to the following conditions: […]

[3] = during milling and formulation operation; prior-art Form I per WO 2007/119248; cited from earlier work

Row | SMILES | Resultant Material after milling ([1]; Milled in a multimill (2 mm mesh size)) | Conversion of solid form on milling ([1]; pharmaceutical operations such as milling) | Resultant Material after storage ([2]; Stored at 25 ± 2° C. at 60 ± 5% RH for 3 months) | Resultant Material after storage ([2]; Stored at 40 ± 2° C. at 75 ± 5% RH for 1 month) | Resultant Material after storage ([2]; Stored at 40 ± 2° C. at 75 ± 5% RH for 2 months) | Resultant Material after storage ([2]; Stored at 40 ± 2° C. at 75 ± 5% RH for 3 months) | Solid-form stability on storage ([2]; stored up to three months at a temperature up to about 45° C. and at a relative humidity of about 25% to about 85%) | Conversion of solid form on milling [3]
1 | Nc1ccn([C@@H]2CS[C@H](CO)O2)c(=O)n1 [Form I obtained from Example 2, (2R,cis)-4-amino-1-(2-hydroxymethyl-1,3-oxathiolan-5-yl)-(1H)-pyrimidin-2-one] | Form I | does not convert to Form II | Form I | Form I | Form I | Form I | remains stable | 
2 | Nc1ccn([C@@H]2CS[C@H](CO)O2)c(=O)n1 [Form I, (2R,cis)-4-amino-1-(2-hydroxymethyl-1,3-oxathiolan-5-yl)-(1H)-pyrimidin-2-one] |  |  |  |  |  |  |  | converts to Form II
